Laboratory results from patent publication EP0531958A1, “6-Aminoquinolones, their synthesis and their use as antibacterial agents” (MEDIOLANUM FARMACEUTICI S.P.A., priority 1991, dated 1993).
≈ marks a conversion by molar mass, not a printed value. Read-outs that look alike come from different tables or passages of the source.

Assays:
Type in all cases: cell-based
[1] = tested on: Enterobacter cloacae OMNF 1174; assay: MIC test, agar dilution with Steers multiwell inoculator; settings: OMNF1174, TSA dishes, 24 h at 35°C, read-out: Minimum Inhibiting Concentration
Protocol: (§1) As to the antibacterial activity, there was determined the Least (Minimum) Inhibiting Concentration (MIC), by working according to the following operative conditions.
(§2) There were used suspensions of test germs (5 gram-positive and 15 gram-negative) having a known titre, kept freezed at -80°C and diluted, at the time of use, in peptonized water up to a concentration of 1-2.10⁷ cfu/ml.
(§3) A few mg of the products, according to the invention were weighed sufficient for preparing parent solutions in DMSO + NaOH (1N) containing 2560 µg/ml (64µg/ml/dish). From the thus prepared parent solutions there were prepared 12 serial dilutions (1:2) down to the concentration of 1.25 µg/ml.
(§4) 0.5 ml of the different dilutions of each product were distributed on dishes containing 19.5 ml of agarized medium (TSA), maintained in a fluid state at the temperature of 50°C. After slight stirring, the dishes were made to solidify and dry under hood (laminar flow).
(§5) The MIC tests (Least or "Minimum" Inhibiting Concentration) were performed by using a Steers multiwell inoculator having 36 wells, each containing 200 µl of bacterial suspension.
(§6) After inoculation, the dishes were placed into a thermostat and checked after 24 h of incubation at 35°C.
(§7) The MIC is defined as the lowermost product concentration (µg/ml) inhibiting the visible growth of the microorganisms.

Escherichia coli ISF 432 = assay: as above; settings: ISF432, TSA dishes, 24 h at 35°C, read-out: Minimum Inhibiting Concentration
Protocol: as §1, §2, §3, §4, §5, §6, §7

[2] = tested on: Staphylococcus aureus ATCC 6538; assay: as above; settings: ATCC6538, TSA dishes, 24 h at 35°C, read-out: Minimum Inhibiting Concentration
Protocol: as §1, §2, §3, §4, §5, §6, §7

[3] = tested on: Staphylococcus aureus MPR 5; assay: as above; settings: MPR5, TSA dishes, 24 h at 35°C, read-out: Minimum Inhibiting Concentration
Protocol: as §1, §2, §3, §4, §5, §6, §7

[4] = tested on: Pseudomonas aeruginosa CNUR 4; assay: as above; settings: CNUR4, TSA dishes, 24 h at 35°C, read-out: Minimum Inhibiting Concentration
Protocol: as §1, §2, §3, §4, §5, §6, §7

Proteus vulgaris CNUR 6 = assay: as above; settings: CNUR6, TSA dishes, 24 h at 35°C, read-out: Minimum Inhibiting Concentration
Protocol: as §1, §2, §3, §4, §5, §6, §7

[5] = tested on: Pseudomonas aeruginosa ATCC 9027; assay: as above; settings: ATCC9027, TSA dishes, 24 h at 35°C, read-out: Minimum Inhibiting Concentration
Protocol: as §1, §2, §3, §4, §5, §6, §7

[6] = tested on: Pseudomonas aeruginosa CNUR 2; assay: as above; settings: CNUR2, TSA dishes, 24 h at 35°C, read-out: Minimum Inhibiting Concentration
Protocol: as §1, §2, §3, §4, §5, §6, §7

[7] = tested on: Staphylococcus epidermidis HCF Berset C.; assay: as above; settings: TSA dishes, 24 h at 35°C, read-out: Minimum Inhibiting Concentration
Protocol: as §1, §2, §3, §4, §5, §6, §7

[8] = tested on: Acinebacter calcoloaceticus OSMPV 1130; assay: as above; settings: TSA dishes, 24 h at 35°C, read-out: Minimum Inhibiting Concentration
Protocol: as §1, §2, §3, §4, §5, §6, §7

[9] = tested on: Escherichia coli ATCC 8739; assay: as above; settings: ATCC8739, TSA dishes, 24 h at 35°C, read-out: Minimum Inhibiting Concentration
Protocol: as §1, §2, §3, §4, §5, §6, §7

[10] = tested on: Enterobacter cloacae OMNF 1153; assay: as above; settings: OMNF1153, TSA dishes, 24 h at 35°C, read-out: Minimum Inhibiting Concentration
Protocol: as §1, §2, §3, §4, §5, §6, §7

Escherichia coli CNUR 1 = assay: as above; settings: CNUR1, TSA dishes, 24 h at 35°C, read-out: Minimum Inhibiting Concentration
Protocol: as §1, §2, §3, §4, §5, §6, §7

Shighella enteritidis = assay: as above; settings: TSA dishes, 24 h at 35°C, read-out: Minimum Inhibiting Concentration
Protocol: as §1, §2, §3, §4, §5, §6, §7

Escherichia coli 120 = assay: as above; settings: TSA dishes, 24 h at 35°C, read-out: Minimum Inhibiting Concentration
Protocol: as §1, §2, §3, §4, §5, §6, §7

Escherichia coli CNUR 8 = assay: as above; settings: CNUR8, TSA dishes, 24 h at 35°C, read-out: Minimum Inhibiting Concentration
Protocol: as §1, §2, §3, §4, §5, §6, §7

[11] = tested on: Providencia stuardii CNUR 5; assay: as above; settings: CNUR5, TSA dishes, 24 h at 35°C, read-out: Minimum Inhibiting Concentration
Protocol: as §1, §2, §3, §4, §5, §6, §7

[12] = tested on: Streptococcus facealis LEP Br.; assay: as above; settings: TSA dishes, 24 h at 35°C, read-out: Minimum Inhibiting Concentration
Protocol: as §1, §2, §3, §4, §5, §6, §7

[13] = tested on: Staphylococcus epidermidis CPHL A2; assay: as above; settings: CPHLA2, TSA dishes, 24 h at 35°C, read-out: Minimum Inhibiting Concentration
Protocol: as §1, §2, §3, §4, §5, §6, §7

[14] = tested on: Klebsiella pneumoniae ATCC 10031; assay: as above; settings: ATCC10031, TSA dishes, 24 h at 35°C, read-out: Minimum Inhibiting Concentration
Protocol: as §1, §2, §3, §4, §5, §6, §7

Gram + = assay: MIC test, average over the 5 gram-positive test germs; settings: 24 h
Protocol: as §1, §2, §3, §4, §5, §6, §7

Gram - = assay: MIC test, average over the 15 gram-negative test germs; settings: 24 h
Protocol: as §1, §2, §3, §4, §5, §6, §7

[15] = geometrical average of the MIC over the 5 Gram + strains, read-out: Geometrical Average
[16] = geometrical average of the MIC over the 15 Gram - strains, read-out: Geometrical Average
[17] = mean log of the MIC over the 15 Gram - strains, read-out: Log (converted)

Row | SMILES | MIC [1] | MIC (Escherichia coli ISF 432) | MIC [2] | MIC [3] | MIC [4] | MIC (Proteus vulgaris CNUR 6) | MIC [5] | MIC [6] | MIC [7] | MIC [8] | MIC [9] | MIC [10] | MIC (Escherichia coli CNUR 1) | MIC (Shighella enteritidis) | MIC (Escherichia coli 120) | MIC (Escherichia coli CNUR 8) | MIC [11] | MIC [12] | MIC [13] | MIC [14] | other results
1 | CC(C)(C)n1cc(C(=O)O)c(=O)c2cc(N)c(N3CCSCC3)cc21 [Compound 46, 6-amino-1-terbutyl-7-(1-thiomorpholinyl)-1,4-dihydro-4-oxo-quinoline carboxylic acid] | 2 µg/mL (≈ 5.53 µM) | 0.03 µg/mL (≈ 0.083 µM) | 0.25 µg/mL (≈ 0.692 µM) | 0.25 µg/mL (≈ 0.692 µM) | 128 µg/mL (≈ 354 µM) | 128 µg/mL (≈ 354 µM) | 4 µg/mL (≈ 11.1 µM) | 16 µg/mL (≈ 44.3 µM) | 0.5 µg/mL (≈ 1.38 µM) | 0.5 µg/mL (≈ 1.38 µM) | 0.06 µg/mL (≈ 0.166 µM) | 2 µg/mL (≈ 5.53 µM) | 1 µg/mL (≈ 2.77 µM) | 2 µg/mL (≈ 5.53 µM) | 0.25 µg/mL (≈ 0.692 µM) | 0.25 µg/mL (≈ 0.692 µM) | 4 µg/mL (≈ 11.1 µM) | 8 µg/mL (≈ 22.1 µM) | 0.5 µg/mL (≈ 1.38 µM) | 0.03 µg/mL (≈ 0.083 µM) | MIC (Gram +; [15]): 0.66 µg/mL; MIC (Gram +; read-out: Log (converted)): 0.659 µg/mL (≈ 1.82 µM); MIC (Gram -; [16]): 1.31 µg/mL (≈ 3.62 µM); MIC (Gram -; [17]): 1.31 µg/mL (≈ 3.62 µM)
2 | CN1CCN(c2c(F)cc3c(=O)c(C(=O)O)cn4c3c2SCC4)CC1 [RUFLOXACIN, reference compound] | 0.5 µg/mL (≈ 1.38 µM) | 0.06 µg/mL (≈ 0.165 µM) | 0.5 µg/mL (≈ 1.38 µM) | 1 µg/mL (≈ 2.75 µM) | 64 µg/mL (≈ 176 µM) | 16 µg/mL (≈ 44 µM) | 8 µg/mL (≈ 22 µM) | 32 µg/mL (≈ 88.1 µM) | 2 µg/mL (≈ 5.5 µM) | 2 µg/mL (≈ 5.5 µM) | 0.5 µg/mL (≈ 1.38 µM) | 1 µg/mL (≈ 2.75 µM) | 0.5 µg/mL (≈ 1.38 µM) | 0.5 µg/mL (≈ 1.38 µM) | 0.25 µg/mL (≈ 0.688 µM) | 0.5 µg/mL (≈ 1.38 µM) | 2 µg/mL (≈ 5.5 µM) | 8 µg/mL (≈ 22 µM) | 1 µg/mL (≈ 2.75 µM) | 0.12 µg/mL (≈ 0.33 µM) | MIC (Gram +; [15]): 1.51 µg/mL; MIC (Gram +; read-out: Log (converted)): 1.52 µg/mL (≈ 4.17 µM); MIC (Gram -; [16]): 1.31 µg/mL (≈ 3.61 µM); MIC (Gram -; [17]): 1.31 µg/mL (≈ 3.61 µM)
3 | Nc1cc2c(=O)c(C(=O)O)cn(C3CC3)c2cc1N1CCNCC1 [Compound 9] | 0.25 µg/mL (≈ 0.761 µM) | 0.03 µg/mL (≈ 0.0914 µM) | 64 µg/mL (≈ 195 µM) | 64 µg/mL (≈ 195 µM) | 64 µg/mL (≈ 195 µM) | 32 µg/mL (≈ 97.5 µM) | 2 µg/mL (≈ 6.09 µM) | 8 µg/mL (≈ 24.4 µM) | 16 µg/mL (≈ 48.7 µM) | 16 µg/mL (≈ 48.7 µM) | 0.25 µg/mL (≈ 0.761 µM) | 0.5 µg/mL (≈ 1.52 µM) | 0.25 µg/mL (≈ 0.761 µM) | 0.5 µg/mL (≈ 1.52 µM) | 0.25 µg/mL (≈ 0.761 µM) | 0.25 µg/mL (≈ 0.761 µM) | 32 µg/mL (≈ 97.5 µM) | 128 µg/mL (≈ 390 µM) | 16 µg/mL (≈ 48.7 µM) | 0.25 µg/mL (≈ 0.761 µM) | MIC (Gram +; [15]): 42.2 µg/mL; MIC (Gram +; read-out: Log (converted)): 42.2 µg/mL (≈ 128 µM); MIC (Gram -; [16]): 1.26 µg/mL (≈ 3.82 µM); MIC (Gram -; [17]): 1.26 µg/mL (≈ 3.83 µM)
